From US20210338665A1, “MEDICAL USE OF PROSTACYCLIN RECEPTOR AGONIST” (CHINESE PLA GENERAL HOSPITAL, priority 2018, published 2021)

Test system: SD rats in a low-pressure low-oxygen environment
Experiment: Rat high altitude model in a low-pressure low-oxygen cabin (380 mmHg, simulated altitude of 5,500 meters): cardio-pulmonary function
Format: in vivo
Details: twice every day for 14 days, compared with the model group; for mean pulmonary arterial pressure (mPAP): P<0.05
Description: 40 SD rats (about 200 g, male, clean) are purchased from Beijing Vital River Laboratory Animal Technology Co. Ltd and have the license number of SCXK(Jing)2016-0006. The SD rats are fed in a low-pressure oxygen cabin, and regularly fed with a complete nutritional feed under the conditions of the room temperature of 22 to 25° C. and the humidity of 30% to 50%.
Solvent configuration: 20% of HP-β-CD and 80% of double distilled water, and pH=8.
A blank control group: normal-pressure normal-oxygen feeding
A model group: a low-pressure low-oxygen cabin, and intragastric administration of a solvent
An experimental group A: a low-pressure low-oxygen cabin, and intragastric administration of sc0253 (5 mg/kg) as well as a solvent
An experimental group B: a low-pressure low-oxygen cabin, and intragastric administration of sc0253 (10 mg/kg) as well as a solvent
40 rats are randomly divided into four groups, and each group includes 10 rats. 3 groups are placed into an experiment module, the pressure inside the module is regulated to 380 mmHg, a high altitude environment with an altitude of 5,500 meters is simulated, the experiment module is opened for 1 hour every day so as to add feed and water for animals and carry out corresponding medicine treatment, meanwhile, the environment where the rats are positioned are kept alternate day and night according to a ratio of 12h:12h, and after 14 days, intragastric administration is respectively carried out in which the solvent (the model group), the sc0253 (5 mg/kg) and the solvent (the experimental group A) or the sc0253 (10 mg/kg) and the solvent (the experimental group B) are respectively applied, and the operation is carried out twice every day and continued for 14 days. Rats in the fourth group are placed in the same room to be fed in the normal-pressure normal-oxygen environment (the blank control group).
3% pentobarbital sodium (0.2 mL/100 g) is intraperitoneally injected to anesthetize the rats, and ultrasonic detection is carried out. The following ultrasonic data is recorded: right ventricular ejection fraction (RVEF); and right ventricular fractional shortening (RVFS). Then the anesthetized rats are fixed on an operating table in a supine position mode, tracheotomy is carried out, a breathing machine is connected, thoracotomy is carried out to expose the hearts, a catheter is inserted into each right ventricle, right heart catheterization is carried out, and the right ventricular systolic pressure is recorded. Then each catheter is slowly pushed forwards, and can reach a corresponding pulmonary artery through a corresponding right ventricular outflow tract, the pressure waveform of a monitor is observed, and the mean pulmonary arterial pressure mPAP is recorded. The rats are executed, the hearts are taken out, the atrial tissue and attached fat are removed, left and right ventricles are separated, moisture is sucked up by filter paper, the weights of the right ventricles and the left ventricles are respectively weighed, and (RV/(LV+IS)) is calculated.
All the data is represented by x±s, comparison among the groups is single factor analysis of variance, when P<0.05, it represents that the difference has a statistical significance, and statistical treatment is carried out by adopting an SPSS19.0 software package.

[1] = experimental group B: sc0253 10 mg/kg intragastric, ultrasonic detection, P<0.01

## O=C(O)COCC1(F)CCN(c2cncc(N(c3ccccc3)c3ccc(F)cn3)n2)CC1 [sc0253]
Experimental group A: sc0253 5 mg/kg intragastric
  mean pulmonary arterial pressure (mPAP): obviously reduced
Experimental group B: sc0253 10 mg/kg intragastric, P<0.01
  right ventricular hypertrophy index RV/(LV+OS): obviously reduced
Experimental group B: sc0253 10 mg/kg intragastric
  mean pulmonary arterial pressure (mPAP): obviously reduced
[1]
  right ventricular ejection fraction (RVEF): obviously increased
  right ventricular fractional shortening (RVFS): obviously increased
